US10894805B2, “Prodrugs of the selective progesterone receptor modulator (SPRM) (11β,17β)-17-Hydroxy-11-[4-(methylsulphonyl)phenyl] -17-(pentafluoroethyl)estra-4,9-dien-3-one” (BAYER PHARMA AKTIENGESELLSCHAFT, priority 2016, dated 2021)
Values belong to the compound of their own block, whether it stands above or below them.

How the values were obtained:
[1] = system: Progesterone receptor; conditions: DeManno et al., Steroids 68 (2003); cited from earlier work
[2] = Plasma concentrations and pharmacokinetic parameters of Compounds 1 and 2 in rats after oral Compound 1; type: in vivo, rat; conditions: for Cmax: po
Experimental: Under the same conditions as described in Example 2 three single dosages of Compound 1 (0.2, 1.0 and 5 mg/kg/day) were administered to rats. Blood samples were taken from the rats at several time-points (1, 2, 4, 7 and 24 h, N=3 animals at each time-point), to allow for calculation of AUC (0-24) and Cmax of compound 1 and compound 2 in rat plasma. The plasma samples were stored at −15° C. until analysis. Compound 1 and 2 were determined in plasma after protein precipitation with acetonitrile containing the internal standards for compound 1 and compound 2. The supernatant was analyzed by separation employing high-pressure liquid chromatography and tandem mass spectrometric detection. The lower limit of quantitation (LLOQ) for Compound 1 was 1.00 μg/L, the linear range between 1.00 and 200 μg/L. The lower limit of quantitation (LLOQ) for Compound 2 was 0.200 μg/L, the linear range between 0.200 and 200 μg/L. A sample volume of 0.1 mL plasma was used. The precision for Compound 1 ranged between 0.97 and 3.73%, accuracy between 99.8 and 101.3%, for Compound 2 precision ranged between 2.01 and 6.19%, accuracy between 92.3 and 96.6% calculated from the study quality control samples.

[3] = In vitro metabolism of 14C-labeled Compound 1 in human liver microsomes; type: in vitro ADME
Experimental: Human liver microsomes were incubated with (3α,11β,17β)-11-[4-(^14C-methylsulfonyl)phenyl]-17-(pentafluoroethyl)estra-4,9-diene-3,17-diol (Compound 1).
(§1) The incubation mixture containing buffer, reconstituting system and microsomal protein was preincubated at 37° C. for 3 min. Incubation was started by the addition of the solution containing (3α,11β,17β)-11-[4-(methylsulfonyl)phenyl]-17-(pentafluoroethyl)estra-4,9-diene-3,17-diol (Compound 1). The samples were incubated at 37° C. in a continuously operating shaking water bath. The incubation reaction was stopped by the addition of 160 μL acetonitrile. The stopped incubations were centrifuged for 10 minutes at 13000 rpm (4° C.) and stored at −18° C. until they were subsequently analysed. 50 μL of the supernatant was examined by chromatography and detected by radiometry and mass spectrometry.

[4] = biological target: recombinant human CYP3A4 (Homo sapiens, UniProt P08684); experiment: In vitro metabolism of 14C-labeled Compound 1 in recombinant human CYP3A4 enzyme; type: in vitro ADME
recombinant human CYP3A4, sequence (P08684 whole entry): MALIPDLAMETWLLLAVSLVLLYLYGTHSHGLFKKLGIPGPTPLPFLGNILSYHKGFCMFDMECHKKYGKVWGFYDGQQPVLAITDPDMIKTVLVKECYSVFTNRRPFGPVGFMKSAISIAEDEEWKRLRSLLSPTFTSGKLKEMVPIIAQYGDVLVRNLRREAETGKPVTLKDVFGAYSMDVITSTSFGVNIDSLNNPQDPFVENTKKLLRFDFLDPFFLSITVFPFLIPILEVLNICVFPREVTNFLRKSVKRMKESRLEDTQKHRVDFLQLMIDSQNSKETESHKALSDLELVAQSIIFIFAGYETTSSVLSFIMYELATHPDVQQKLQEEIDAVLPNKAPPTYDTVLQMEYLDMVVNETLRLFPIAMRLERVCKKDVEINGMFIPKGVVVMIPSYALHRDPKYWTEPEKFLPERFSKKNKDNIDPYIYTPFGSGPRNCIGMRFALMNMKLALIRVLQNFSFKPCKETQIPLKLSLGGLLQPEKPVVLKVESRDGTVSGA
Experimental: Recombinant human CYP3A4 was incubated with (3α,11β,17β)-11-[4-(^14C-methylsulfonyl)phenyl]-17-(pentafluoroethyl)estra-4,9-diene-3,17-diol (Compound 1).
The incubation mixture containing buffer, reconstituting system and CYP3A4 protein was prepared and given into a 37° C. shaking water bath. Incubation was started by the addition of the solution containing (3α,11β,17β)-11-[4-(methylsulfonyl)phenyl]-17-(pentafluoroethyl)estra-4,9-diene-3,17-diol (Compound 1). The samples were incubated at 37° C. in a continuously operating shaking water bath. 200 μL of the incubation mixture were removed after incubation time and the reaction was stopped by the addition of 120 μL acetonitrile on an ice bath. The stopped incubations were centrifuged for 10 minutes at 12000 rpm (7° C.). After removing of the supernatant from the protein pellet the supernatant was stored at −20° C. until they were subsequently analysed. 50 μL of the supernatants was examined by chromatography and detected by radiometry and mass spectrometry.

[5] = biological target: T1, human progesterone receptor A (Homo sapiens, UniProt P06401); experiment: PR-A transactivation assay in SK-N-MC cells (method as described in WO2011/009531); type: cell-based
T1 construct: expressed in transfected cells; host or cells: SK-N-MC (human neuroblastoma cells), stably transfected
T1 sequence (P06401 1-769 isoform P06401-2): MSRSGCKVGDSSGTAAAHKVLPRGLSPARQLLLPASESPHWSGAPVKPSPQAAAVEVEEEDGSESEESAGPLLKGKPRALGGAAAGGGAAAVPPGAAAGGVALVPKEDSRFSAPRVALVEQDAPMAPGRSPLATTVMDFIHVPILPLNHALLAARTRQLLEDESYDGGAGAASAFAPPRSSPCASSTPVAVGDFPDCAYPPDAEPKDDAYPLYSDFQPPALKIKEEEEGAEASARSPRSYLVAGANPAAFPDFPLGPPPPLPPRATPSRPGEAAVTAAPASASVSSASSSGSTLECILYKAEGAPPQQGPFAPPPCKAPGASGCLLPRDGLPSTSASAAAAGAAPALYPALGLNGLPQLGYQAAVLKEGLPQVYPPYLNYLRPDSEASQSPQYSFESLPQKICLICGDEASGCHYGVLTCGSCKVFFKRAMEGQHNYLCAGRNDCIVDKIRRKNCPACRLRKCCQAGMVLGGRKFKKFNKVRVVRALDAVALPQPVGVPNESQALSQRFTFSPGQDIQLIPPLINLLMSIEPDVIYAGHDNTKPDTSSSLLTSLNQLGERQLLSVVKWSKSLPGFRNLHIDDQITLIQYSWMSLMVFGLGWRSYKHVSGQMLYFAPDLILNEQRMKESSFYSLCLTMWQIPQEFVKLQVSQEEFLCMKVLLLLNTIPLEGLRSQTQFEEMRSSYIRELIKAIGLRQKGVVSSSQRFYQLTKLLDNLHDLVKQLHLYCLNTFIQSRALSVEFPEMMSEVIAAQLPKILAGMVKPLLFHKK
Experimental: (§2) SK-N-MC cells (human neuroblastoma cells), which have been stably transfected with plasmids, which express the human progesterone receptor B ([…]) or the human progesterone receptor A (pRChPR-A-neo) and a reporter construct (pMMTV-LUC), were incubated for 24 hours either in the absence (negative control) or in the presence of increasing amounts of the respective Compound 2 (0.01 nmol/l, 0.1 nmol/l, 1 nmol/l, 10 nmol/l, 100 nmol/land […]), in order to determine the agonistic efficacy. As positive control of reporter gene induction, the cells were treated with the synthetic gestagen promegestone (0.01 nmol/l, 0.1 nmol/l, 1 nmol/l, 10 nmol/l, 100 nmol/l and […]). For determination of the antagonistic activity, the cells were treated with 0.1 nmol/l promegestone and additionally with increasing amounts of the respective test compound (0.01 nmol/l, 0.1 nmol/l, 1 nmol/l, 10 nmol/l, 100 nmol/l and […]). The activity of the LUC reporter gene (LUC=luciferase) was determined in the cell lysates and was measured as RLU (relative light units).

[6] = biological target: T2, human progesterone receptor B (Homo sapiens, UniProt P06401); experiment: PR-B transactivation assay in SK-N-MC cells (method as described in WO2011/009531); type: cell-based
T2 construct: expressed in transfected cells; host or cells: SK-N-MC (human neuroblastoma cells), stably transfected
T2 sequence (P06401 1-933): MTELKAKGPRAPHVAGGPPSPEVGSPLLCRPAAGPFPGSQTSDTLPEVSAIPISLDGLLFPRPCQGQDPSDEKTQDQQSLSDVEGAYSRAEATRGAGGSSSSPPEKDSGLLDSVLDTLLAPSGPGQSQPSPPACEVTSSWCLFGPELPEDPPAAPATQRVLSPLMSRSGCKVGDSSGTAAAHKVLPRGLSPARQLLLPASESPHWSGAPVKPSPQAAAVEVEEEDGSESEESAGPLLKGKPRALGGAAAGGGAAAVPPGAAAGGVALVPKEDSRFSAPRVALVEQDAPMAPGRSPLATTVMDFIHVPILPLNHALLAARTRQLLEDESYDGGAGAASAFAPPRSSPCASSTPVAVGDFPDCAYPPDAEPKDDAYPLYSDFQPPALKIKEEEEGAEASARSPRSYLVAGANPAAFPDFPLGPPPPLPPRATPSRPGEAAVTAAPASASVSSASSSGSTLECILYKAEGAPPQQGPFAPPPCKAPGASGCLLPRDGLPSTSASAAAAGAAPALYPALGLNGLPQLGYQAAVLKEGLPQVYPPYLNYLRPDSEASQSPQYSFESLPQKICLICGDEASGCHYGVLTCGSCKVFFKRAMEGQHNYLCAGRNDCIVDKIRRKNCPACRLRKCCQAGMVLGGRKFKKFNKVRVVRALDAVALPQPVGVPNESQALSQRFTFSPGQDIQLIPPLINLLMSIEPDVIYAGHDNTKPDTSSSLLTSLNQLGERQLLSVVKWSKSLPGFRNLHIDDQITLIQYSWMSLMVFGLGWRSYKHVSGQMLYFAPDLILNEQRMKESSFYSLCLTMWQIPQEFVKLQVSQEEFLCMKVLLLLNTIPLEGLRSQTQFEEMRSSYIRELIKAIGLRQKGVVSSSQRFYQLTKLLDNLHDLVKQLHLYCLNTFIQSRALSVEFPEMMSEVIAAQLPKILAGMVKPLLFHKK
Experimental: as §2

[7] = In vitro metabolism of 14C-labeled Compound 2 in human liver cytosol; type: in vitro ADME
Experimental: Human liver cytosol was incubated with (11β,17β)-17-Hydroxy-11-[4-(methylsulphonyl)phenyl]-17-(pentafluoroethyl)estra-4,9-dien-3-one (Compound 2).
as §1, with “and cytosolic” for “and microsomal”, “containing (11β,17β)-17-Hydroxy-11-[4-(methylsulphonyl)phenyl]-17-(pentafluoroethyl)estra-4,9-dien-3-one” for “containing (3α,11β,17β)-11-[4-(methylsulfonyl)phenyl]-17-(pentafluoroethyl)estra-4,9-diene-3,17-diol”, “(Compound 2).” for “(Compound 1).”, “bath. 250 μL of the” for “bath. The”, “incubation mixture” for “incubation reaction”, “of 100” for “of 160”

[8] = Plasma concentrations of Compound 3 and its metabolite Compound 2 in rats; type: in vivo, rat
Experimental: Under the same conditions as described in Example 3, Compound 3 (5 mg/kg/day) was administered to female rats at a dose of 5 mg/kg. Blood samples were taken from the rats at several time-points (0.5, 1, 3, 6 h, N=3 animals at each time-point), to allow for calculation of AUC (0-inf) of compound 3 and compound 2 in rat plasma.
The plasma samples were stored at −15° C. until analysis. Compound 3 and compound 2 were determined in plasma after protein precipitation with acetonitrile containing the internal standards for compound 3 and compound 2. The supernatant was analyzed by separation employing high-pressure liquid chromatography and tandem mass spectrometric detection. AUC (0-inf) means Area Under the plasma Concentration vs. time curve (0-inf) from zero to infinity.

[9] = rat plasma, single p.o. dose of Compound 1, 0.2 mg/kg

SMILES: COC[C@]1(OC)CC[C@H]2[C@@H]3CCC4=CC(=O)CCC4=C3[C@@H](c3ccc(/C=N/O)cc3)C[C@@]21C [Asoprisnil (J867), Asoprisnil]
Progesterone binding affinity, Relative molar Binding Affinity (RBA) [1]: about 299 % RBA

SMILES: COC[C@]1(OC)CC[C@H]2[C@@H]3CCC4=CC(=O)CCC4=C3[C@@H](c3ccc(/C=N/O)cc3)C[C@@]21C [Compound J912]
Progesterone binding affinity, Relative molar Binding Affinity (RBA) [1]: about 165 % RBA

More lines, now with the values ahead:

conversion into Compound 2 in rat ([2]; after oral Compound 1): almost completely converted
Cmax [2, 9]: < 1 ng/mL
Cmax ([2]; rat plasma, single p.o. dose of Compound 1, 1.0 mg/kg): 3.36 ng/mL
Cmax ([2]; rat plasma, single p.o. dose of Compound 1, 5.0 mg/kg): 12.9 ng/mL
Compound 1 Cmax [2, 9]: <1.00 ng/mL
maximum concentration of remaining compound 1 in rat plasma ([2]; single oral dose of Compound 1, 5.0 mg/kg): 12.9 µg/L
proportion of Compound 1 compared to 0 hr sample ([3]; 1 μM, 0.5 mg/mL protein, after 1 hours incubation): marked decrease
Compound 2 formed in the incubation sample ([3]; incubation of 1 μM Compound 1, after 1 hour): large quantity
proportion of Compound 1 compared to 0 hr sample ([4]; after 0.5 and 2 hours incubation with rhCYP3A4): marked decrease
Compound 2 formed in the incubation sample ([4]; incubation of Compound 1 with rhCYP3A4): large quantity
amount of compound 2 in the incubation sample ([4]; incubation of Compound 1 with rhCYP3A4, after 120 min): decreased remarkably
Compound 1 (% of 14C-radioactivity) ([4]; incubation time with rhCYP3A4 0 h): 82%
Compound 1 (% of 14C-radioactivity) ([4]; incubation time with rhCYP3A4 0.5 h): 52%
Compound 1 (% of 14C-radioactivity) ([4]; incubation time with rhCYP3A4 2 h): 2.7%
SMILES: C[C@]12C[C@H](c3ccc(S(C)(=O)=O)cc3)C3=C4CC[C@@H](O)C=C4CC[C@H]3[C@@H]1CC[C@@]2(O)C(F)(F)C(F)(F)F [Compound 1, (3α,11β,17β)-11-[4-(methylsulfonyl)phenyl]-17-(pentafluoroethyl)estra-4,9-diene-3,17-diol]

agonistic activity on PR-A [5]: no agonistic activity
antagonism on PR-A [5]: very strong antagonist
agonistic activity on PR-B [6]: no agonistic activity
antagonism on PR-B [6]: very strong antagonist
proportion of Compound 2 compared to 0 hr sample ([7]; 10 μM, 1.0 mg/mL cytosolic protein, NADPH, after 1 and 4 hours): marked decrease
turnover of Compound 2 to Compound 1 in liver cytosol ([7]; absence of NADPH generating system as well as presence of NAD co-factor): No turnover
Compound 1 formed in the incubation sample ([7]; incubation of 10 μM Compound 2, after 1 and 4 hours): significant quantity
SMILES: C[C@]12C[C@H](c3ccc(S(C)(=O)=O)cc3)C3=C4CCC(=O)C=C4CC[C@H]3[C@@H]1CC[C@@]2(O)C(F)(F)C(F)(F)F [Compound 2, (11β,17β)-17-Hydroxy-11-[4-(methylsulphonyl)phenyl]-17-(pentafluoroethyl)estra-4,9-dien-3-one]

conversion into Compound 2 in rat ([8]; after oral Compound 3): partially converted
AUC(0-inf) ([8]; po, rat plasma, single p.o. 5 mg/kg of Compound 3, female rats): 1240 ng·h/mL
SMILES: C[C@]12C[C@H](c3ccc([S@](C)(=N)=O)cc3)C3=C4CCC(=O)C=C4CCC3C1CC[C@@]2(O)C(F)(F)C(F)(F)F (stereo partly drawn) [Compound 3, (11β,17β)-17-hydroxy-11-[4-(RS-methylsulphonimidoyl)phenyl]-17-(pentafluoroethyl)estra-4,9-dien-3-one]
